Assay results from the supplement of paper PMC8671470.

How the values were obtained:
Details in all cases: 72 h
[1] = tested on: myeloid leukemia patient primary cells Pat.9; assay: cell viability (% survival relative to DMSO control); higher = less cytotoxic
Procedure, shortened: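 Seventy compounds were pre-printed on 384-well plates at five tenfold concentrations between 1 and 10,000 nM, in duplicate. Thawed mononuclear cells purified by Ficoll from AML or CML patients were added at 10,000 cells/well in RPMI 1640 with 10% FBS for 72 h. Viability by CellTiter-Glo was normalised to DMSO and 10 μM proteasome-inhibitor wells. Where stated, area under the curve was taken from log-logistic fits made with the drc and PharmacoGx R packages, each fit having four parameters.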

[2] = tested on: myeloid leukemia patient primary cells Pat.10; assay: area under dose-response curve (viability, 1 nM-10 uM) (fraction (0-1)); higher = more sensitive
Description: (§1)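 AUC (0–1, higher = more sensitive) of the 5-point dose–response (1 nM–10 µM, 72 h, CellTiter-Glo) in primary AML/CML patient mononuclear cells. 0.030103 is the floor for inactive compounds.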

[3] = tested on: myeloid leukemia patient primary cells Pat.4; assay: as above
Description: as §1

[4] = tested on: myeloid leukemia patient primary cells Pat.15; assay: as above
Description: as §1

[5] = tested on: myeloid leukemia patient primary cells Pat.12; assay: as above
Description: as §1

[6] = tested on: myeloid leukemia patient primary cells Pat.6; assay: as above
Description: as §1

[7] = tested on: myeloid leukemia patient primary cells Pat.5; assay: as above
Description: as §1

[8] = tested on: myeloid leukemia patient primary cells Pat.9; assay: as above
Description: as §1

[9] = tested on: myeloid leukemia patient primary cells Pat.13; assay: as above
Description: as §1

[10] = tested on: myeloid leukemia patient primary cells Pat.11; assay: as above
Description: as §1

[11] = tested on: myeloid leukemia patient primary cells Pat.14; assay: as above
Description: as §1

[12] = tested on: myeloid leukemia patient primary cells Pat.1; assay: as above
Description: as §1

[13] = tested on: myeloid leukemia patient primary cells Pat.2; assay: as above
Description: as §1

[14] = tested on: myeloid leukemia patient primary cells Pat.3; assay: as above
Description: as §1

[15] = tested on: myeloid leukemia patient primary cells Pat.8; assay: as above
Description: as §1

[16] = tested on: myeloid leukemia patient primary cells Pat.7; assay: as above
Description: as §1

[17] = tested on: MV4-11; assay: cell viability (% survival relative to DMSO control); higher = less cytotoxic
Description: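 8x8 drug-combination matrices (0–5000 nM; rosiglitazone and lestaurtinib 0–1000 nM) were run in MV4-11 cells for 72 h with CellTiter-Glo read-out. Survival is normalised to DMSO and 10 µM bortezomib and clipped at 100%.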

O=C1O/C(=C/Br)CCC1c1cccc2ccccc12 (stereo not given) [Bromoenol Lactone]
[1]
Details	cell viability [%]
1 nM	66
10 nM	39.3
100 nM	46.4
1000 nM	5.6
10000 nM	0.492

Details	area under dose-response curve
[2]	0.515
[3]	0.213
[4]	0.132
[5]	0.084
[6]	0.0918
[7]	0.828
[8]	0.651
[9]	0.0877
[10]	0.0656
[11]	0.324
[12]	0.135
[13]	0.0768
[14]	0.447
[15]	0.0529
[16]	0.287

Nc1nc(Cl)nc2c1ncn2[C@H]1C[C@H](O)[C@@H](CO)O1 [Cladribine]
[1]
Details	cell viability [%]
1 nM	84.9
10 nM	34
100 nM	< 0
1000 nM	1.24
10000 nM	4.28

Details	area under dose-response curve
[2]	0.768
[3]	0.689
[4]	0.193
[5]	0.438
[6]	0.611
[7]	0.799
[8]	0.762
[9]	0.7
[11]	0.616
[12]	< 0.0301
[13]	0.463
[14]	0.652
[15]	0.609
[16]	0.62

N#CC(C#N)=NNc1ccc(OC(F)(F)F)cc1 [FCCP]
[1]
Details	cell viability [%]
1 nM	54
10 nM	63.1
100 nM	82.9
1000 nM	3.45
10000 nM	0.492

Details	area under dose-response curve
[2]	0.466
[3]	0.229
[4]	0.159
[5]	0.0898
[6]	0.175
[7]	0.825
[8]	0.361
[9]	0.211
[10]	0.158
[11]	0.316
[12]	0.214
[13]	0.0623
[14]	0.361
[15]	0.116
[16]	0.366

O=C1c2cc([N+](=O)[O-])ccc2-n2c1nc1ccccc1c2=O [GNF-Pf-3777]
[1]
Details	cell viability [%]
1 nM	82.9
10 nM	68.9
100 nM	60.9
1000 nM	63.4
10000 nM	25.8

Details	area under dose-response curve
[2]	0.27
[3]	0.14
[4]	0.0672
[5]	< 0.0301
[6]	0.0546
[7]	0.292
[8]	0.158
[9]	0.115
[11]	0.071
[13]	0.0426
[14]	0.265
[16]	0.0749

CC(C)c1onc(-c2c(Cl)cccc2Cl)c1COc1ccc(/C=C/c2cccc(C(=O)O)c2)c(Cl)c1 [GW4064] + Cn1cc(-c2ccncc2)c(-c2ccc(OCc3ccc4ccccc4n3)cc2)n1 [PF-02545920]
cell viability [%], [17]
Details	drug1 concentration 5 nM	drug1 concentration 10 nM	drug1 concentration 50 nM	drug1 concentration 100 nM	drug1 concentration 500 nM	drug1 concentration 1000 nM	drug1 concentration 5000 nM
drug2 concentration 5 nM	90.6	> 100	> 100	95.2	> 100	90.8	90.2
drug2 concentration 10 nM	> 100	> 100	91	99.5	94.5	> 100	95.5
drug2 concentration 50 nM	> 100	> 100	> 100	> 100	> 100	53.1	96.7
drug2 concentration 100 nM	97.4	> 100	> 100	96.7	> 100	> 100	89.1
drug2 concentration 500 nM	> 100	96.2	> 100	> 100	70.1	> 100	77.9
drug2 concentration 1000 nM	> 100	> 100	97.2	91.1	95.5	80.8	73.6
drug2 concentration 5000 nM	48.9	54	49.3	53.3	54.9	50.4	46.4

O=C(O)Cn1nnc(-c2cc(N3CCC(Oc4cc(F)ccc4Br)CC3)no2)n1 [MK-8245]
[1]
Details	cell viability [%]
1 nM	82.3
10 nM	69.4
100 nM	79.2
1000 nM	85.3
10000 nM	71.9

Details	area under dose-response curve
[2]	0.205
[3]	< 0.0301
[4]	< 0.0301
[5]	< 0.0301
[6]	< 0.0301
[7]	0.0448
[8]	< 0.0301
[9]	< 0.0301
[10]	< 0.0301
[11]	< 0.0301
[12]	< 0.0301
[13]	< 0.0301
[14]	0.0756
[15]	< 0.0301
[16]	< 0.0301

C=C(C=NNC(=N)N)NNC(=N)N [Mitoguazone]
[1]
Details	cell viability [%]
1 nM	75.2
10 nM	50.8
100 nM	1.24
1000 nM	1.6
10000 nM	57.2

Details	area under dose-response curve
[2]	0.574
[3]	0.0342
[4]	0.161
[5]	< 0.0301
[6]	0.484
[7]	0.715
[8]	0.6
[9]	< 0.0301
[10]	< 0.0301
[11]	0.604
[12]	< 0.0301
[13]	< 0.0301
[14]	0.412
[15]	< 0.0301
[16]	0.528

COc1cc(/C=C/C(=O)N2CCC=CC2=O)cc(OC)c1OC [Piperlongumine]
[1]
Details	cell viability [%]
1 nM	9.44
10 nM	76.7
100 nM	31.8
1000 nM	39
10000 nM	7.88

Details	area under dose-response curve
[2]	< 0.0301
[3]	0.21
[4]	0.191
[5]	0.162
[6]	0.116
[7]	0.585
[8]	0.505
[9]	0.149
[10]	0.121
[11]	0.244
[12]	0.143
[13]	0.125
[14]	0.219
[15]	0.144
[16]	0.0802

C=C(C)[C@H]1Cc2c(ccc3c2O[C@@H]2COc4cc(OC)c(OC)cc4[C@@H]2C3=O)O1 [Rotenone]
[1]
Details	cell viability [%]
1 nM	1.24
10 nM	50.1
100 nM	10.8
1000 nM	1.6
10000 nM	< 0

Details	area under dose-response curve
[2]	0.411
[3]	0.187
[4]	0.465
[5]	0.0808
[6]	0.399
[7]	0.99
[8]	0.55
[9]	0.391
[10]	< 0.0301
[11]	0.41
[12]	0.112
[14]	0.57
[15]	0.322
[16]	0.329

Oc1ccc(Nc2nc(-c3ccc(Cl)cc3)cs2)cc1 [SKI II]
[1]
Details	cell viability [%]
1 nM	20.1
10 nM	79.9
100 nM	67.9
1000 nM	24.7
10000 nM	4.42

Details	area under dose-response curve
[2]	0.291
[3]	0.0605
[4]	0.0495
[5]	0.0339
[6]	0.0895
[8]	0.341
[9]	0.0533
[10]	< 0.0301
[11]	0.304
[12]	0.054
[13]	0.0376
[14]	0.238
[15]	0.054
[16]	0.424

CC[C@@]1(O)C(=O)OCc2c1cc1n(c2=O)Cc2cc3c(CN(C)C)c(O)ccc3nc2-1 [Topotecan]
[1]
Details	cell viability [%]
1 nM	78.4
10 nM	58.3
100 nM	31.8
1000 nM	58.8
10000 nM	1.24

Details	area under dose-response curve
[2]	0.507
[3]	0.132
[4]	0.225
[5]	0.0406
[6]	0.147
[7]	0.426
[8]	0.245
[9]	0.0753
[10]	0.0826
[11]	0.231
[12]	0.0609
[13]	0.127
[14]	0.54
[15]	0.0586
[16]	0.282

CCC(=O)N1CCN(c2ccc(-n3c(=O)ccc4cnc5ccc(-c6cnc7ccccc7c6)cc5c43)cc2C(F)(F)F)CC1 [Torin1]
[1]
Details	cell viability [%]
1 nM	80.9
10 nM	57.7
100 nM	62
1000 nM	27
10000 nM	12.3

Details	area under dose-response curve
[2]	0.477
[3]	0.322
[4]	0.614
[5]	< 0.0301
[7]	0.802
[8]	0.36
[9]	0.218
[10]	0.183
[11]	0.225
[12]	0.457
[15]	0.0632
[16]	0.195
